IC50 data for six molecules are collected here from ChEMBL document CHEMBL1132781, “Structure-based design and synthesis of phosphinate isosteres of phosphotyrosine for incorporation in Grb2-SH2 domain inhibitors. Part 1” (Bioorg Med Chem Lett, 2000).

The structures appear in SMILES notation.

What is called IC50 is the concentration that gives 50% inhibition.

The target of this test is Growth factor receptor-bound protein 2 (Homo sapiens, UniProt P62993). The test is described as follows: Inhibition of Grb2-SH2 domain binding to phospho-EGF receptor intracellular C-terminal domain. The class given is cell-based.
Growth factor receptor-bound protein 2, sequence (P62993 whole entry, the tested form may be a part): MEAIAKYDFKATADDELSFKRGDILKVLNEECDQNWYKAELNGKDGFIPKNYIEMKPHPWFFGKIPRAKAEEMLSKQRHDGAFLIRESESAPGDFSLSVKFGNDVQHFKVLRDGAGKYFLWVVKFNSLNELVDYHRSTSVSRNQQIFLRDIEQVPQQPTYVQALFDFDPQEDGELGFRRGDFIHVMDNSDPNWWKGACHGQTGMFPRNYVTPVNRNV
Molecule `CC(=O)N[C@@H](Cc1ccc(CP(=O)(O)C(O)c2ccccc2)cc1)C(=O)NC1(C(=O)N[C@@H]2CCCC[C@@H]2C(N)=O)CCCCC1` (stereo partly specified) had a half-inhibitory concentration (IC50) of 530 nM.

On to `CC(=O)N[C@@H](Cc1ccc(CP(C)(=O)O)cc1)C(=O)NC1(C(=O)N[C@@H]2CCCC[C@@H]2C(N)=O)CCCCC1`, for which the half-maximal inhibitory concentration (IC50) worked out at 25500 nM.

In turn, `CC(=O)N[C@@H](Cc1ccc(CP(=O)(O)CCO)cc1)C(=O)NC1(C(=O)N[C@@H]2CCCC[C@@H]2C(N)=O)CCCCC1` yielded a half-inhibitory concentration (IC50) of 1600 nM.

`CC(=O)N[C@@H](Cc1ccc(CP(=O)(O)CO)cc1)C(=O)NC1(C(=O)N[C@@H]2CCCC[C@@H]2C(N)=O)CCCCC1` showed a half-maximal inhibitory concentration (IC50) of 7600 nM.

For the molecule `CC(=O)N[C@@H](Cc1ccc(CP(=O)(O)Cc2ccccc2)cc1)C(=O)NC1(C(=O)N[C@@H]2CCCC[C@@H]2C(N)=O)CCCCC1`, the concentration for half-maximal inhibition (IC50) worked out at 1200 nM.

`CC(=O)N[C@@H](Cc1ccc(CP(=O)(O)O)cc1)C(=O)NC1(C(=O)N[C@@H]2CCCC[C@@H]2C(N)=O)CCCCC1` gave an IC50 of 700 nM.
